Assay results from patent publication US10544110B2, “Small molecule inhibitors of the nuclear translocation of androgen receptor for the treatment of castration-resistant prostate cancer” (University of Pittsburgh-Of the Commonwealth System of …, priority 2013, dated 2020).
“And” between values parts separate entries of the source, which are not always exact repeats. Identical values can stand only once.

Test system: AR transcriptional activity (PSA promoter activity)
Assay: PSA luciferase assay in C4-2-PSA-rl cells (Dual-Glo luciferase system)
Settings: for IC50 / activity in PSA luciferase assay (in words): C4-2-PSA-rl cells; for IC50: 24 h treatment, 1 nM R1881, mean and SD of 2-6 independent experiments; for activity in PSA luciferase assay (in words): up to 25 μM
Experimental: C4-2-PSA-rl cells were seeded in 24-well plates such that they reached 75-80% cell monolayer density after 24 h. […] Each compound was tested in at least two independent experiments. Luciferase activity was assayed using the Dual-Luciferase® Reporter Assay System (Promega) using LMax II Microplate Reader (Molecular Devices). The luciferase assay results were acquired using SoftMax Pro5.45 software (Molecular Devices) and analyzed using GraphPad Prism. PSA6.1-luc activity was normalized to the Renilla luciferase activity. Relative luciferase activity was calculated as the quotient of androgen-induced PSA-firefly/Renilla luciferase activity. Since PSA promoter activity correlates to AR transcriptional activity, inhibition of AR will result in decreased PSA-luciferase activity.

SMILES | IC50 (24 h) [µM] | activity in PSA luciferase assay (in words) | IC50 | increase in activity relative to amide 5b (amine 6 vs amide 5b) [fold]
Cc1ccccc1N1CCN(C(=O)[C@H]2C[C@@H]2c2ccccc2)CC1 (racemic) [Compound 16, ((1SR,2SR)-2-Phenylcyclopropyl)(4-(o-tolyl)piperazin-1-yl)methanone] | > 25 | essentially inactive |  | 
Cc1noc(C)c1CSCC(=O)N1CCN(c2ccccc2)CC1 [Compound 5a, 2-(((3,5-Dimethylisoxazol-4-yl)methyl)thio)-1-(4-phenylpiperazin-1-yl)ethanone] | > 25 | deleted activity |  | 
Cc1ccccc1N1CCN(C(=O)CSCc2c(C)noc2C)CC1 [Compound 5b, 2-(((3,5-Dimethylisoxazol-4-yl)methyl)thio)-1-(4-(o-tolyl)piperazin-1-yl)ethanone] | 14.5 |  |  | 
Cc1cccc(N2CCN(C(=O)CSCc3c(C)noc3C)CC2)c1 [Compound 5c, 2-(((3,5-Dimethylisoxazol-4-yl)methyl)thio)-1-(4-(m-tolyl)piperazin-1-yl)ethanone] | > 25 | loss of activity |  | 
Cc1ccc(N2CCN(C(=O)CSCc3c(C)noc3C)CC2)cc1 [Compound 5d, 2-(((3,5-Dimethylisoxazol-4-yl)methyl)thio)-1-(4-(p-tolyl)piperazin-1-yl)ethanone] | > 25 | loss of activity |  | 
Cc1noc(C)c1CSCC(=O)N1CCN(c2ccccc2C#N)CC1 [Compound 5e, 2-(4-(2-(((3,5-Dimethylisoxazol-4-yl)methyl)thio)acetyl)piperazin-1-yl)benzonitrile] | 12 to 13 |  | 12 ± 1.6 µM | 
Cc1noc(C)c1CSCC(=O)N1CCN(c2ccccc2F)CC1 [Compound 5f, 2-(((3,5-Dimethylisoxazol-4-yl)methyl)thio)-1-(4-(2-fluorophenyl)piperazin-1-yl)ethan-1-one] | 12 to 13 |  | 12.6 ± 7.7 µM | 
Cc1noc(C)c1CSCC(=O)N1CCN(c2cccc3ccccc23)CC1 [Compound 5g, 2-(((3,5-Dimethylisoxazol-4-yl)methyl)thio)-1-(4-(naphthalen-1-yl)piperazin-1-yl)ethanone] | 11.1 |  |  | 
COc1ccccc1N1CCN(C(=O)CSCc2c(C)noc2C)CC1 [Compound 5h, 2-(((3,5-Dimethylisoxazol-4-yl)methyl)thio)-1-(4-(2-methoxyphenyl)piperazin-1-yl)ethanone] | > 25 | complete loss of activity |  | 
Cc1ccccc1N(C)CCN(C)C(=O)CSCc1c(C)noc1C [Compound 5i, 2-(((3,5-Dimethylisoxazol-4-yl)methyl)thio)-N-methyl-N-(2-(methyl(o-tolyl)amino)ethyl) acetamide] | 18.4 |  |  | 
Cc1ccccc1N1CCCN(C(=O)CSCc2c(C)noc2C)CC1 [Compound 5j, 2-(((3,5-Dimethylisoxazol-4-yl)methyl)thio)-1-(4-(o-tolyl)-1,4-diazepan-1-yl)ethan-1-one] | 11.1 |  |  | 
Cc1ccccc1N1C[C@@H](C)N(C(=O)CSCc2c(C)noc2C)[C@@H](C)C1 [Compound 5k, 1-(2,6-Dimethyl-4-(o-tolyl)piperazin-1-yl)-2-(((3,5-dimethylisoxazol-4-yl)methyl)thio)ethanone] | 3.1 | significantly more potent than 1 |  | 
Cc1noc(C)c1CSCC(=O)N1C[C@@H](C)N(c2ccccc2)[C@@H](C)C1 [Compound 5l, 1-(3,5-Dimethyl-4-phenylpiperazin-1-yl)-2-(((3,5-dimethylisoxazol-4-yl)methyl)thio)ethan-1-one] | 15 to 17 |  | 14.7 ± 4.4 µM | 
Cc1cccc(N2[C@H](C)CN(C(=O)CSCc3c(C)noc3C)C[C@@H]2C)c1 [Compound 5m, 1-(3,5-Dimethyl-4-(m-tolyl)piperazin-1-yl)-2-(((3,5-dimethylisoxazol-4-yl)methyl)thio)ethan-1-one] | 15 to 17 |  | 16.6 ± 4.8 µM | 
Cc1ccccc1N1CCN(CCSCc2c(C)noc2C)CC1 [Compound 6, 3,5-Dimethyl-4-(((2-(4-(o-tolyl)piperazin-1-yl)ethyl)thio)methyl)isoxazole] | 10.8 |  |  | 1.3
Cc1ccccc1N1CCN(C(=O)CSCc2ccccc2)CC1 [Compound 7, 2-(Benzylthio)-1-(4-(o-tolyl)piperazin-1-yl)ethanone] | 14 |  | 13.7 ± 0.8 µM | 
Cc1ccccc1N1CCN(C(=O)CCCc2ccccc2)CC1 [Compound 8, 4-Phenyl-1-(4-(o-tolyl)piperazin-1-yl)butan-1-one] | 14 |  | 14.4 ± 3.7 µM | 

SMILES | IC50 (24 h) [µM] | activity in PSA luciferase assay (in words) | IC50 | increase in activity relative to amide 5b (amine 6 vs amide 5b) [fold]
Cc1ccccc1N1CCN(C(=O)CSc2ccccc2)CC1 [Compound 9, 2-(Phenylthio)-1-(4-(o-tolyl)piperazin-1-yl)ethan-1-one] | > 25 | abolished activity |  | 
Cc1ccccc1N1CCN(C(=O)C#Cc2ccccc2)CC1 [Compound 10, 3-Phenyl-1-(4-(o-tolyl)piperazin-1-yl)prop-2-yn-1-one] | 20.3 ± 11.6 | essentially inactive |  | 
Cc1ccccc1N1CCN(C(=O)/C=C/c2ccccc2)CC1 [Compound 11, (E)-3-Phenyl-1-(4-(o-tolyl)piperazin-1-yl)prop-2-en-1-one] | > 25 | essentially inactive |  | 
Cc1ccccc1N1CCN(C(=O)C[S+]([O-])Cc2c(C)noc2C)CC1 (centres unmarked) [Compound 12, 2-(((3,5-Dimethylisoxazol-4-yl)methyl)sulfinyl)-1-(4-(o-tolyl)piperazin-1-yl)ethan-1-one] | > 25 | inactive |  | 
Cc1ccccc1N1CCN(C(=O)CS(=O)(=O)Cc2c(C)noc2C)CC1 [Compound 13, 2-(((3,5-Dimethylisoxazol-4-yl)methyl)sulfonyl)-1-(4-(o-tolyl)piperazin-1-yl)ethan-1-one] | 16.1 |  |  | 
Cc1ccccc1N1CCN(C(=O)/C=C\c2ccccc2)CC1 [Compound 14, (Z)-3-Phenyl-1-(4-(o-tolyl)piperazin-1-yl)prop-2-en-1-one] | 12.7 |  |  | 
Cc1ccccc1N1CCN(C(=O)C2CC2c2ccccc2)CC1 (centres unmarked) [Compound 15, (2-Phenylcyclopropyl)(4-(o-tolyl)piperazin-1-yl)methanone] | 2.9 | significantly more potent than 1 |  | 
Cc1ccccc1N1CCN(C(=O)COCc2c(C)noc2C)CC1 [Compound 18a, 2-((3,5-Dimethylisoxazol-4-yl)methoxy)-1-(4-(o-tolyl)piperazin-1-yl)ethan-1-one] | > 25 | abolished activity |  | 
Cc1ccccc1N1CCN(C(=O)CN(C)Cc2ccccc2)CC1 [Compound 18b, 2-(Benzyl(methyl)amino)-1-(4-(o-tolyl)piperazin-1-yl)ethanone] | > 25 | abolished activity |  | 
Cc1ccccc1N1CCN(S(=O)(=O)CSCc2c(C)noc2C)CC1 [Compound 18c, 3,5-Dimethyl-4-(((((4-(o-tolyl)piperazin-1-yl)sulfonyl)methyl)thio)methyl)isoxazole] | 7.2 |  |  | 
Cc1ccccc1N1CCN(C(=O)NCSCc2c(C)noc2C)CC1 [Compound 20a, N-((((3,5-Dimethylisoxazol-4-yl)methyl)thio)methyl)-4-(o-tolyl)piperazine-1-carboxamide] | > 25 | inactive |  | 
Cc1ccccc1N1CCC(OC(=O)NCSCc2c(C)noc2C)CC1 [Compound 20b] | > 25 | inactive |  | 
Cc1ccccc1C1CC2CCC(C1)N2C(=O)CSCc1c(C)noc1C (stereo not drawn) [Compound 26a, 2-(((3,5-Dimethylisoxazol-4-yl)methyl)thio)-1-(3-endo-(o-tolyl)-8-azabicyclo[3.2.1]octan-8-yl)ethanone] |  |  | 8 µM and 7.7 µM | 
Cc1ccccc1[C@@H]1C[C@H]2CC[C@@H](C1)N2C(=O)CSCc1c(C)noc1C [Compound 26b] |  |  | 8 µM and 7.9 µM | 
Cc1ccc(Cl)cc1N1CCN(C(=O)[C@H]2C[C@H]2c2ccc(F)cc2)CC1 [JJ-450A, (4-(5-chloro-2-methylphenyl)piperazin-1-yl)((1S,2R)-2-(4-fluorophenyl)cyclopropyl)methanone] | 1.6 ± 0.1 | significantly more potent than 1 |  | 
Cc1ccc(Cl)cc1N1CCN(C(=O)[C@@H]2C[C@@H]2c2ccc(F)cc2)CC1 [JJ-450B, (4-(5-Chloro-2-methylphenyl)piperazin-1-yl)((1R,2S)-2-(4-fluorophenyl)cyclopropyl)-methanone] | 13.1 ± 1.8 |  |  | 
